Laboratory results taken from PMC12040169 (PLOS Biology, 2025).

Test: in vitro
Conditions: human, hela cells, % viability

Compound	viability at 28.5 h, 10 µM [%]
NC(=O)C1CCN(C(=O)CCCSc2nc(-c3ccco3)cc(C(F)(F)F)n2)CC1 [CBK268844]	98.5
Cc1cc(C)cc(NC(=O)CSc2ncccn2)c1 [CBK287577]	97.8
CN1C(=O)C(C)(C)Oc2ccc(C(O)c3ccco3)cc21 (centres unmarked) [CBK284469]	89.8
CS(=O)(=O)N1CCc2cc(-c3csc(C4CC4)n3)ccc21 [CBK306347]	70.5
COC(=O)Cn1c(-c2ccc(F)cc2)cc2cccnc21 [CBK282763]	91.5
C#CCNS(=O)(=O)c1cccc(C(=O)NC2CCOc3ccccc32)c1 (centres unmarked) [CBK305430]	111
c1ccc(-c2nnc(SCc3nnc(-c4ccccc4)o3)[nH]2)cc1 [CBK270003]	104
NS(=O)(=O)c1ccc(Nc2nc3nonc3nc2Nc2ccc(S(N)(=O)=O)cc2)cc1 [CBK261110]	97.5
Cc1c(NC(=O)CSc2nnc3c4ccccc4n(C(C)C)c3n2)c(=O)n(-c2ccccc2)n1C [CBK263916]	105
COc1ccc(C(C)C)cc1-c1cnc(N)c(NC2CCCCC2)n1 [CBK063618]	108
CCn1cc(NCc2ccccc2Cl)c(C(=O)O)n1 [CBK286807]	95.2
COc1ccc(C(=O)C2=C(O)C(=O)N(Cc3cccnc3)C2c2ccc(N(C)C)cc2)cc1 (centres unmarked) [CBK264635]	85.9
COc1ccc([C@@]23CC[C@@H](NC(=O)Nc4cccc(Br)n4)C[C@@H]2N(C)CC3)cc1OC [CBK045703]	85.4
O=C(Cn1cccnc1=O)NCc1cccnc1OCC(F)(F)F [CBK305949]	109
O=S(=O)(Nc1ccccc1O)c1ccc(OC(F)(F)F)cc1 [CBK043512]	80.2
Cc1cccnc1Nc1nc(-c2sc(N)nc2C)cs1 [CBK267147]	90.3
CCCC(=O)N(C)C(CO)c1cc(OC)ccc1Br (centres unmarked) [CBK304694]	95.4
O=C(c1ccc2cc[nH]c2c1)N1CCN(CC2CCOC2)CC1 (centres unmarked) [CBK305541]	99.2
Nc1ncn([C@H]2C[C@@H](O)[C@@H](CO)O2)c(=O)n1 [CBK201329]	92.8
COc1cc(/C=N/n2cnnc2)ccc1OS(=O)(=O)c1ccccc1[N+](=O)[O-] [CBK263814]	89.3
COc1ccc2c(c1)/C(=C/c1cnc[nH]1)C(=O)N2 [CBK115354]	72.5

Compound	viability at 28.5 h, 10 µM [%]
CCc1nc2ccc(C(=O)Nc3ccc(OC)c(OC)c3)cn2c1N(C)C(=O)Nc1ccccc1OC [CBK145875]	117
COc1ccc(C)cc1NC(=O)CSc1nnc(-c2ccccc2Cl)n1-c1ccccc1 [CBK267538]	82.9
NC(=O)c1ccccc1NC(=O)CCN1C(=O)c2cccc([N+](=O)[O-])c2C1=O [CBK263118]	87.4
O=C(CN1CCCCCC1=O)NCC(CO)Cc1ccsc1 (centres unmarked) [CBK306763]	118
COC(=O)c1cc(NC(=O)OC(C)(C)C)ccc1O [CBK016529]	86
O=S(=O)(NCc1ccccc1)c1ccc(Cl)c(S(=O)(=O)NCc2ccccc2)c1 [CBK263251]	81.9
CC(C)(C)c1ccc(C(=O)Nc2ccccc2C(=O)Nc2ccc(C(=O)O)cc2)cc1 [CBK268626]	89.1
Cc1onc(-c2ccccc2)c1C(=O)n1cccn1 [CBK287274]	97.5
CCOC(=O)N1CCC(NS(=O)(=O)c2ccc(OC)c(OC)c2)CC1 [CBK045464]	104
COc1ccccc1N1CCN(CC(=O)Nc2cc(Cl)ccc2C)CC1 [CBK270087]	105
C=CCN1C(=O)CC2(C1=O)C(=O)N(CCCn1c(=O)n(C)c3ccccc31)c1ccc(Cl)cc12 (centres unmarked) [CBK075411]	94.6
CCc1nccn1CCC(=O)N1CC(OCc2ccccc2F)C1 [CBK306597]	88.5
N#Cc1ccc(Oc2ccc3c(c2)-c2cc(Oc4ccc(C#N)c(C#N)c4)ccc2S3(=O)=O)cc1C#N [CBK261151]	92.4
COc1ccc2[nH]cc(CCNC(=O)c3ccc(Cl)c(Cl)c3)c2c1 [CBK115870]	107
Cc1cnccc1CN1CCC[C@@H]2CN(C(=O)CC(C)C)C[C@@H]21 [CBK285289]	104
NC(=O)C1(Cc2ccccc2-c2ccccc2)CCN(C(=O)Cc2ccccc2)CC1 [CBK285909]	95.9
Cc1oc(-c2ccccc2)cc1C(=O)Nc1ccc(N2CCNCC2)nc1 [CBK034127T]	80.3
CCNC(=O)N1CC2(CCN(CCCCC3NC(=O)NC3=O)CC2)c2ccccc21 (centres unmarked) [CBK126707]	92.2
O=C1CSC2(C(=O)Nc3ccccc32)N1c1cccc(F)c1 (centres unmarked) [CBK093488]	99.2
COc1cc(OC)nc(C(NC(=O)C2CCN(C(=O)c3ccccc3)CC2)c2ccccc2)n1 (centres unmarked) [CBK059650]	99.7
c1cncc(-c2noc(-c3cc(C4CC4)[nH]n3)n2)c1 [CBK287973]	94.7

Compound	viability at 28.5 h, 10 µM [%]
O=C(CN1CCC(Oc2nccnc2OCc2ccc(Cl)c(Cl)c2)CC1)Nc1ccccc1 [CBK153783]	110
COc1ccc(S(=O)(=O)N2CCN(C(=O)c3cc(-c4cccnc4)nc4c(C)cc(C)cc34)CC2)cc1OC [CBK267767]	99.4
O=c1cc(-c2cccc([N+](=O)[O-])c2)c2ccc(OCc3cc4c(cc3Cl)OCO4)cc2o1 [CBK265652]	92.1
CC(O)CNc1nccnc1-c1ccc(S(C)(=O)=O)cc1 (centres unmarked) [CBK037669]	96.1
CSc1nc(SCC(=O)N(c2ccccc2)c2ccccc2)c2c3c(sc2n1)CCC3 [CBK267715]	90.6
Nc1nc(N)nc(CSc2ncc(-c3ccccc3)n2-c2ccccc2)n1 [CBK297103]	85.9
CN(C)CCNC(=O)c1cccc(-c2cncc(Nc3cccc(Cl)c3)n2)c1 [CBK065229]	104
COc1ccc(N(C(C)C(=O)N/N=C2\C(=O)Nc3ccccc32)S(C)(=O)=O)cc1 (centres unmarked) [CBK262408]	98.5
CN(Cc1cccn1C)C(=O)c1cc(-c2cnn(C)c2)[nH]n1 [CBK283325]	103
Cc1nc(C2CCN(Cc3ccccc3)C2)c2ccccn12 (centres unmarked) [CBK282111]	88.1
CC(CCc1ccccc1)NC1CCCc2c1[nH]c1ccc([N+](=O)[O-])cc21 (centres unmarked) [CBK262875]	73.2
Cc1ccc2c(C)c(C(=O)Nc3ccc(S(N)(=O)=O)cc3)oc2c1 [CBK267661]	110
Cc1oc(-c2ccccc2)nc1CCOc1ccc(NC(=O)c2ccc(Cl)cc2Cl)c(C(=O)O)c1 [CBK000168D]	88.6
O=C(O)CC1NC(=O)C(Cc2ccccc2)NC1=O (centres unmarked) [CBK286827]	98.1
CCN1C(=O)CC2(C1=O)C(=O)N(Cc1cccc(CN3C(=O)CCC3=O)c1)c1ccccc12 (centres unmarked) [CBK075508]	104
CC(CSSCC(C)C(=O)O)C(=O)O (centres unmarked) [CBK260940]	96.7
CC(=O)NC1(c2ccccc2)CCN(Cc2ccnn2C)CC1 [CBK281805]	87.8
COc1ccc(Cl)cc1NC(=S)NNC(=O)c1cc(C)nc2ccccc12 [CBK266920]	50.5
CCCCn1c(SCc2nc(-c3cccc(Cl)c3)no2)n[nH]c1=O [CBK295356]	116
COc1cc(CNc2nc(-c3ccc(C(C)(C)C)cc3)cn3ccnc23)cc(OC)c1OC [CBK066615]	99.3
CN(CCN1CCCC1)c1nccc(N2CCN[C@H]3CS(=O)(=O)C[C@H]32)n1 [CBK306692]	85.6

Compound	viability at 28.5 h, 10 µM [%]
COc1cccc(CN2CCCC(NC(=O)c3ccccc3Cl)C2)c1 (centres unmarked) [CBK306774]	117
O=C(CN1CCCC1Cn1cncn1)NCCc1ccsc1 (centres unmarked) [CBK305113]	85.2
O=C(NC1CC1)[C@H]1CN2CCC1C[C@@H]2Cn1cc(C2(O)CCCC2)nn1 (some centres unmarked) [CBK289092]	82.1
CC(Oc1ccc(Cl)cc1Cl)C(=O)NC1CC(C)(C)NC(C)(C)C1 (centres unmarked) [CBK263951C]	90.3
CCS(=O)(=O)N1CCc2cc(C(=O)CSc3nnc(-c4ccco4)o3)ccc21 [CBK297126]	98.3
Cc1ccc(C(=O)NCc2ccco2)c(N2CCOCC2)n1 [CBK076410]	89.9
O=C(Cn1cnc2ccc(F)cc2c1=O)N1CCOC2CCCC21 (centres unmarked) [CBK304932]	90.4
COc1cc(CN2CCN(c3ccccn3)CC2)cc(Br)c1O [CBK025770]	91.9
Cc1nonc1CC(=O)NC1(c2ccc(F)cc2)CCCC1 [CBK283613]	93.2
COC(=O)Nc1sc2c(c1C(=O)N1CCOCC1)CCC(C)C2 (centres unmarked) [CBK307413]	95
COc1cccc(CC(=O)N2[C@H](Cc3ccccc3)C[C@@H]3NCCCCC[C@H]32)c1 [CBK286030]	105
c1ccc2cc(CCN3CCC(Oc4cncc(OCCN5CCOCC5)n4)C3)ccc2c1 (centres unmarked) [CBK084503]	92.7
CC(=O)c1ccc(OCc2nc(N)nc(Nc3ccccc3)n2)cc1 [CBK297155]	83.1
O=C1C2C=NNC2C(=O)N1c1ccccc1 (centres unmarked) [CBK022326]	103
CCOC(=O)c1c(NC(=O)Cc2ccccc2)sc2c1CCC2 [CBK262309]	88.4
N#Cc1ccc(N2CCN(CCCNC(=O)Nc3ccccc3)CC2)cc1 [CBK267861]	95
CC1(C)CC(=O)N(C2CCCCC2)C(=O)C1C#N (centres unmarked) [CBK009894]	107
O=C(CN(c1cccc(Cl)c1)S(=O)(=O)c1ccccc1)NN=C1CCCCC1 [CBK262470]	114
Cc1cc(OC(C)C(=O)NCc2ccccn2)ccc1Cl (centres unmarked) [CBK269617]	110
CC(=O)Nc1ccc(OCC(O)Cn2cnc3cc(C)c(C)cc32)cc1 (centres unmarked) [CBK304545]	93.3
CC(C)NC(=O)N[C@H]1CCN2C(=O)c3cc(-c4ccccc4)ccc3NC(=O)[C@H]12 [CBK289351]	84.1

Same assay, conditions: human, hela cells, % viability, bulk resorufin, single well

Compound	viability at 28.5 h, 10 µM [%]
COc1ccc(CCNC(=O)c2cccc(-c3ccc4c(c3)COC3(CCNCC3)O4)c2)cc1OC [CBK110024]	116
CCN(CC)S(=O)(=O)c1ccc(N/C=C2/C(=O)NC(=O)N(c3ccccc3)C2=O)cc1 [CBK263372]	89.9
